# Test results: publication PMC6511062, “Preclinical candidate for the treatment of visceral leishmaniasis that acts through proteasome inhibition” (Proceedings of the National Academy of Sciences of the …, 2019)
# “Also recorded” adds a separate entry of the source.
# Experiments:
# [1] = Pharmacokinetics in male CD-1 mice; format: in vivo, mouse
# Procedure: 5. Intrinsic clearance (CLint) […]
# 6. Pharmacokinetic studies.
# Mouse pharmacokinetic studies were conducted in male CD-1 mice and male beagle dogs. 3 animals per group were used for each study performed.
# A dose of 3 mg/kg was administered intravenously, in a bolus form to mice and infused over a 30 min period to dogs. For all the intravenous studies compound were dissolved in 5% DMSO/20% kleptose in saline.
# A dose of 10 mg/kg was orally administered by gavage to the two species in a suspension of 1% methylcellulose to investigate oral pharmacokinetics.
# Peripheral blood samples were obtained at 5, 15, 30 min, 1, 2, 4, 6 ,8 and 24 h after intravenous administration and 15, 30, 45 min,1, 2, 4, 6, 8 and 24 h after oral administration. Blood was 1/2 diluted with milliQ water and immediately frozen on dry ice until analysis. Quantification was performed by means of LC-MS/MS (API4000), with a lower limit of quantification of 1 ng/mL.
# Pharmacokinetic parameters, namely clearance (CL), volume of distribution at steady state (Vss) and bioavailability (F%), were estimated using Phoenix, WinNonLin […]
# Data analysis and calculation of pharmacokinetic parameters was performed using Phoenix, WinNonLin Version 6.3.
# Following the intravenous administration, the whole blood clearance was calculated
# [2] = 7 day oral repeat-dose rat toxicology and toxicokinetics; conditions: for tolerability: male rats, oral
# Procedure: b. 7 day rat toxicology studies
# A 7 day oral repeat-dose study in male rats was conducted to determine the toxicity […]
# Groups of male rats (4/group toxicity; 3/group […]
# up to 7 days by oral gavage. […]
# mouse lymphoma cells = experiment: Mouse lymphoma assay
# Procedure: oxidative metabolism system (S9-mix). […]
# The maximum […]
# concentrations analysed were 410.45 µg/mL (1 mM, the maximum concentration in accordance with current guidelines and 100 µg/mL (limited by toxicity), for the 3 and […]
# The mouse lymphoma screen was carried out using test methodology based on established procedures for in vitro gene mutation testing17,18,19,20. […]
# [3] = system: ubiquitylated proteins in L. donovani axenic amastigotes; experiment: Western blot of ubiquitylated proteins in axenic amastigotes; format: cell-based, Leishmania donovani; conditions: dose-dependent
# Procedure: k. Proteasome activity assays
# Compounds were dispensed into black 384-well assay plates (Greiner) by acoustic dispensing (LabCyte ECHO). For potency determinations, eleven-point, one in three dilution curves were generated, with a top concentration of 100 µM. Three proteasome activities were measured using a commercially available indirect enzyme-based luminescent assay kit (Promega) with Suc-LLVY-aminoluciferin, Z-LRR-aminoluciferin and Z-nLPnLD-aminoluciferin used as substrates for chymotrypsin-like, trypsin-like and caspase-like activities, respectively. In addition to proteasome samples: L. donovani and THP1-enriched proteasomes, commercially available human purified 26S proteasome (Boston Biochem) was also assessed. Proteasome final assay concentration were 0.025 mg/ml for L. donovani and THP1-enriched proteasomes and 1 nM for human purified 26S proteasome. […]
# Substrate solution was then added and after 30 min of incubation luminescent signal was measured in an Envision reader (PerkinElmer). […]
# value) were used as negative and positive controls, respectively. […] Protein concentrations were determined by standard Bradford assays and Laemmli sample buffer was added to samples. […]
# Figure S6. […] Ubiquitin proteins were detected using the human anti-ubiquitin P4D1 antibody diluted 1:1,000. […]
# [4] = male, CD-1, whole blood, mouse, 3 mg/kg iv bolus
smiles,measurement,setting,value
O=C(Nc1ccc(F)c(-c2ccn3c(N4CCOCC4)cnc3n2)c1)N1CCCC1 [Compound 8],clearance,[1]; [4],40.7 ± 13.6 mL/min/kg
same,half-life,[1]; [4],39 ± 19.2 min
same,Vd,"[1]; male, CD-1, whole blood, mouse, 3 mg/kg iv bolus, read-out: Vss",2.2 L/kg
same,blood clearance,[1]; mouse,41 mL/min per kilogram
same,Cl (%LBF),"[1]; mouse, 3 mg/kg iv",32%
same,bioavailability,"[1]; whole blood, CD-1 male mouse, 10 mg/kg po, read-out: F (oral bioavailability)",18%
same,margin to the predicted human blood AUC0-24,[2]; 300 mg/kg/day,37 fold
same,tolerability,[2]; 1000 mg/kg/day,not tolerated
same,tolerability,"[2]; 100 and 300 mg/kg/day, 7 days",tolerated over the 7 days
same,rat 7-d toxicology study outcome,[2]; doses up to 300 mg/kg,no significant safety or tolerability liabilities were detected
same,safety margin,"[2]; male, rat, in vivo, 300 mg/kg, 7 days",at least 37 fold
same,MF (Mutation Frequency),"mouse lymphoma cells; 3 hour +S9 treatment, 375 µg/mL",191.25 ×10-6
same,MF (Mutation Frequency),"mouse lymphoma cells; 3 hour +S9 treatment, 410.445 µg/mL",222.38 ×10-6
same,mouse lymphoma screen result,mouse lymphoma cells; 3 hours with S9-mix and 24 hours without S9-mix,negative
same,MF (Mutation Frequency),"mouse lymphoma cells; 24 hour -S9 treatment, 40 µg/mL",75.89 ×10-6
same,MF (Mutation Frequency),"mouse lymphoma cells; 24 hour -S9 treatment, 70 µg/mL",78.36 ×10-6
same,MF (Mutation Frequency),"mouse lymphoma cells; 24 hour -S9 treatment, 100 µg/mL",86.96 ×10-6
same,accumulation of ubiquitylated proteins,[3],dose-dependent manner; also recorded: induces the accumulation of ubiquitylated proteins
